Experimental data: BindingDB's records for doi:10.1016/j.bmcl.2005.03.076 (Janssen-Cilag, 2005)

Molecular target: Sodium-dependent noradrenaline transporter (Rattus norvegicus)
Assay: In vitro binding affinity against norepinephrine transporter using [3H]-nisoxetine as radioligand

Structure (SMILES)	Ki [µM]
Brc1ccc2c(c1)[C@H]1O[C@H](Cn3oc4ccc(CN5CCOCC5)cc43)C[C@H]1c1ccccc1O2 [8-((2S,3aS,12bS)-11-Bromo-2,3,3a,12b-tetrahydro-1,8-dioxa-dibenzo[e,h]azulen-2-ylmethyl)-3-morpholin-4-ylmethyl-7-oxa-8-aza-bicyclo[4.2.0]octa-1(6),2,4-triene]	3.11
Nc1ccc2on(C[C@@H]3C[C@H]4c5ccccc5Oc5ccc(Br)cc5[C@H]4O3)c2c1 [8-((2S,3aS,12bS)-11-Bromo-2,3,3a,12b-tetrahydro-1,8-dioxa-dibenzo[e,h]azulen-2-ylmethyl)-7-oxa-8-aza-bicyclo[4.2.0]octa-1(6),2,4-trien-3-ylamine]	0.62
CN(C)c1ccc2on(C[C@@H]3C[C@H]4c5ccccc5Oc5ccc(Br)cc5[C@H]4O3)c2c1 [[8-((2S,3aS,12bS)-11-Bromo-2,3,3a,12b-tetrahydro-1,8-dioxa-dibenzo[e,h]azulen-2-ylmethyl)-7-oxa-8-aza-bicyclo[4.2.0]octa-1(6),2,4-trien-3-yl]-dimethyl-amine]	2.25
